Reference: USRE46630E1, “Substituted 4-pyridones and their use as inhibitors of neutrophil elastase activity” (Boehringer Ingelheim International GmbH, priority 2012, dated 2017)

Target: T1, Human neutrophil elastase (Homo sapiens, UniProt P08246)
T1 construct: purchased Calbiochem 324681
T1 sequence (P08246 30-267): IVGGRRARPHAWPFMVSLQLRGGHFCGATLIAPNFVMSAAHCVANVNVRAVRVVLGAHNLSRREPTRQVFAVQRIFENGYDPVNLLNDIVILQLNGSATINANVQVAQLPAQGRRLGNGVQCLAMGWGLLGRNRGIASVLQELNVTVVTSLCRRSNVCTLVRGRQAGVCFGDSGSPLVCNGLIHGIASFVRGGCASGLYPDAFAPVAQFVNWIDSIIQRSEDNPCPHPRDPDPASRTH
Test: Human Neutrophil Elastase Assay
Assay type: biochemical
Settings: Neutrophil Elastase assay; substrate MeOSuc-Ala-Ala-Pro-Val-AMC 250 μM; 15 min preincubation, 60 min incubation at room temperature; pH 7.5
Experimental: Human Neutrophil Elastase Assay
All other materials were of the highest grade commercially available.
The following buffers were used: Compound buffer: 100 mM Tris, 500 mM NaCl, adjusted to pH 7.5; Assay buffer: 100 mM Tris, 500 mM NaCl, adjusted to pH 7.5, containing 0.01% BSA.
Assay conditions: Test compounds were prediluted in DMSO and subsequently in compound buffer (5% DMSO final). […] After inactivation of the enzyme, fluorescence intensities were measured at 380 nm excitation and 460 nm emission wavelengths.
Each plate contains wells with a high value control (DMSO+enzyme+substrate) and wells with a low value control (DMSO+inactivated enzyme+substrate). […] Means of low values were taken as 0%, means of high values as 100%.

IC50 [nM] | SMILES
4.1 | Cc1c(-c2cccc(C(F)F)c2)c(=O)c(C(=O)NCCCN(C)C)cn1C(C)c1ccc(C#N)cc1 (stereo not drawn) [Example 8.1]
1.9 | Cc1noc(CNC(=O)c2cn(C(C)c3ccc(C#N)cc3)c(C)c(-c3cccc(C(F)F)c3)c2=O)n1 (stereo not drawn) [Example 8.2]
1.3 | Cc1c(-c2cccc(C(F)F)c2)c(=O)c(C(=O)NCCCS(C)(=O)=O)cn1C(C)c1ccc(C#N)cc1 (stereo not drawn) [Example 8.3]
1.8 | Cc1c(-c2cccc(C(F)F)c2)c(=O)c(C(=O)NCCCO)cn1C(C)c1ccc(C#N)cc1 (stereo not drawn) [Example 8.4]
1.2 | Cc1nnc(CNC(=O)c2cn(C(C)c3ccc(C#N)cc3)c(C)c(-c3cccc(C(F)F)c3)c2=O)o1 (stereo not drawn) [Example 8.5]
1.7 | Cc1c(-c2cccc(C(F)F)c2)c(=O)c(C(=O)NC2CNC(=O)C2)cn1C(C)c1ccc(C#N)cc1 (stereo not drawn) [Example 8.7]
1.1 | Cc1c(-c2cccc(C(F)F)c2)c(=O)c(C(=O)NCC[S+](C)[O-])cn1C(C)c1ccc(C#N)cc1 (stereo not drawn) [Example 8.8]
1.9 | Cc1c(-c2cccc(C(F)F)c2)c(=O)c(C(=O)NCCO)cn1C(C)c1ccc(C#N)cc1 (stereo not drawn) [Example 8.9]
1.6 | Cc1c(-c2cccc(C(F)F)c2)c(=O)c(C(=O)NC2CCN(C)C2=O)cn1C(C)c1ccc(C#N)cc1 (stereo not drawn) [Example 8.10]
4.3 | Cc1c(-c2cccc(C(F)F)c2)c(=O)c(C(=O)NCCN(C)C)cn1C(C)c1ccc(C#N)cc1 (stereo not drawn) [Example 8.11]
1.4 | Cc1c(-c2cccc(C(F)F)c2)c(=O)c(C(=O)NC2CCNC2=O)cn1C(C)c1ccc(C#N)cc1 (stereo not drawn) [Example 8.12]
3.2 | Cc1c(-c2cccc(C(F)F)c2)c(=O)c(C(=O)NCCCCO)cn1C(C)c1ccc(C#N)cc1 (stereo not drawn) [Example 8.13]
3.6 | Cc1c(-c2cccc(C(F)F)c2)c(=O)c(C(=O)NCc2cnn(C)c2)cn1C(C)c1ccc(C#N)cc1 (stereo not drawn) [Example 8.14]
4.4 | Cc1c(-c2cccc(C(F)F)c2)c(=O)c(C(=O)NCCn2cccn2)cn1C(C)c1ccc(C#N)cc1 (stereo not drawn) [Example 8.15]
2.4 | Cc1c(-c2cccc(C(F)F)c2)c(=O)c(C(=O)NCc2ccnn2C)cn1C(C)c1ccc(C#N)cc1 (stereo not drawn) [Example 8.16]
3.1 | Cc1c(-c2cccc(C(F)F)c2)c(=O)c(C(=O)NCc2ccno2)cn1C(C)c1ccc(C#N)cc1 (stereo not drawn) [Example 8.17]
2.4 | Cc1c(-c2cccc(C(F)F)c2)c(=O)c(C(=O)NCc2cccnc2)cn1C(C)c1ccc(C#N)cc1 (stereo not drawn) [Example 8.18]
1.7 | Cc1c(-c2cccc(C(F)F)c2)c(=O)c(C(=O)NCc2ccccn2)cn1C(C)c1ccc(C#N)cc1 (stereo not drawn) [Example 8.19]

IC50 [nM] | SMILES
1 | Cc1c(-c2cccc(C(F)F)c2)c(=O)c(C(=O)NCc2ccncc2)cn1C(C)c1ccc(C#N)cc1 (stereo not drawn) [Example 8.20]
3 | CCNC(=O)c1cn(C(C)c2ccc(C#N)cc2)c(C)c(-c2cccc(C(F)F)c2)c1=O (stereo not drawn) [Example 8.21]
21.6 | Cc1c(-c2cccc(C(F)F)c2)c(=O)c(C(N)=O)cn1C(C)c1ccc(C#N)cc1 (stereo not drawn) [Example 8.22]
3.4 | Cc1nc(CNC(=O)c2cn(C(C)c3ccc(C#N)cc3)c(C)c(-c3cccc(C(F)F)c3)c2=O)no1 (stereo not drawn) [Example 8.23]
1.7 | CCOCCNC(=O)c1cn(C(C)c2ccc(C#N)cc2)c(C)c(-c2cccc(C(F)F)c2)c1=O (stereo not drawn) [Example 8.24]
1.8 | COCCCNC(=O)c1cn(C(C)c2ccc(C#N)cc2)c(C)c(-c2cccc(C(F)F)c2)c1=O (stereo not drawn) [Example 8.25]
1.8 | COCCNC(=O)c1cn(C(C)c2ccc(C#N)cc2)c(C)c(-c2cccc(C(F)F)c2)c1=O (stereo not drawn) [Example 8.26]
3 | CCCNC(=O)c1cn(C(C)c2ccc(C#N)cc2)c(C)c(-c2cccc(C(F)F)c2)c1=O (stereo not drawn) [Example 8.27]
3.3 | Cc1c(-c2cccc(C(F)F)c2)c(=O)c(C(=O)NCc2cnn(C)c2)cn1C(C)c1ccc(C#N)cc1 (stereo not drawn) [Example 8.28]
4.5 | Cc1c(-c2ccnc(C(F)(F)F)c2)c(=O)c(C(=O)NCCCO)cn1C(C)c1ccc(C#N)cc1 (stereo not drawn) [Example 9.1]
3.3 | Cc1c(-c2ccnc(C(F)(F)F)c2)c(=O)c(C(=O)NCCS(C)(=O)=O)cn1C(C)c1ccc(C#N)cc1 (stereo not drawn) [Example 9.2]
3.9 | Cc1c(-c2ccnc(C(F)(F)F)c2)c(=O)c(C(=O)NCC[S+](C)[O-])cn1C(C)c1ccc(C#N)cc1 (stereo not drawn) [Example 9.3]
4.1 | Cc1c(-c2ccnc(C(F)(F)F)c2)c(=O)c(C(=O)NC2CCNC2=O)cn1C(C)c1ccc(C#N)cc1 (stereo not drawn) [Example 9.4]
3.2 | Cc1c(-c2ccnc(C(F)(F)F)c2)c(=O)c(C(=O)NCCCS(C)(=O)=O)cn1C(C)c1ccc(C#N)cc1 (stereo not drawn) [Example 9.6]
7 | Cc1nnc(CNC(=O)c2cn(C(C)c3ccc(C#N)cc3)c(C)c(-c3ccnc(C(F)(F)F)c3)c2=O)o1 (stereo not drawn) [Example 9.7]
4.2 | Cc1c(-c2ccnc(C(F)(F)F)c2)c(=O)c(C(=O)NC2CNC(=O)C2)cn1C(C)c1ccc(C#N)cc1 (stereo not drawn) [Example 9.8]
7.6 | Cc1c(-c2ccnc(C(F)(F)F)c2)c(=O)c(C(=O)NCCO)cn1C(C)c1ccc(C#N)cc1 (stereo not drawn) [Example 9.9]
12.4 | Cc1c(-c2ccnc(C(F)(F)F)c2)c(=O)c(C(=O)NCCN(C)C)cn1C(C)c1ccc(C#N)cc1 (stereo not drawn) [Example 9.10]

More lines, now with the values behind:

SMILES | IC50 [nM]
COc1cc(-c2c(C)n(Cc3ccc(C#N)cc3)cc(C(=O)NCc3ccc(S(C)(=O)=O)cc3)c2=O)ccn1 [Example 6.6] | 38.6
COc1cncc(-c2c(C)n(Cc3ccc(C#N)cc3)cc(C(=O)NCc3ccc(S(C)(=O)=O)cc3)c2=O)c1 [Example 6.7] | 75.3
Cc1c(-c2cccc(Cl)c2)c(=O)c(C(=O)NCc2ccc(S(C)(=O)=O)cc2)cn1Cc1ccc(C#N)cc1 [Example 6.8] | < 1
Cc1c(-c2cncc(Cl)c2)c(=O)c(C(=O)NCc2ccc(S(C)(=O)=O)cc2)cn1Cc1ccc(C#N)cc1 [Example 6.9] | 3.8
Cc1c(-c2cccc(C(F)F)c2)c(=O)c(C(=O)NCc2ccc(S(C)(=O)=O)cc2)cn1Cc1ccc(C#N)cc1 [Example 6.10] | < 1
Cc1c(-c2ccnc(C(F)(F)F)c2)c(=O)c(C(=O)NCc2ccc(S(C)(=O)=O)cc2)cn1Cc1ccc(C#N)cc1 [Example 6.11] | < 1
Cc1c(-c2cc(C(F)(F)F)ccn2)c(=O)c(C(=O)NCc2ccc(S(C)(=O)=O)cc2)cn1Cc1ccc(C#N)cc1 [Example 6.12] | 3.8
Cc1c(-c2cncc(C(F)(F)F)c2)c(=O)c(C(=O)NCc2ccc(S(C)(=O)=O)cc2)cn1Cc1ccc(C#N)cc1 [Example 6.13] | 2.5
Cc1c(-c2cccc(C(F)(F)F)c2)c(=O)c(C(=O)NCCCN(C)C)cn1C(C)c1ccc(C#N)cc1 (stereo not drawn) [Example 7.1] | 4.1
Cc1noc(CNC(=O)c2cn(C(C)c3ccc(C#N)cc3)c(C)c(-c3cccc(C(F)(F)F)c3)c2=O)n1 (stereo not drawn) [Example 7.2] | 2.5
Cc1c(-c2cccc(C(F)(F)F)c2)c(=O)c(C(=O)NCCCS(C)(=O)=O)cn1C(C)c1ccc(C#N)cc1 (stereo not drawn) [Example 7.3] | 1.3
Cc1c(-c2cccc(C(F)(F)F)c2)c(=O)c(C(=O)NCCCO)cn1C(C)c1ccc(C#N)cc1 (stereo not drawn) [Example 7.4] | 1.8
Cc1nnc(CNC(=O)c2cn(C(C)c3ccc(C#N)cc3)c(C)c(-c3cccc(C(F)(F)F)c3)c2=O)o1 (stereo not drawn) [Example 7.5] | 1.4
Cc1c(-c2cccc(C(F)(F)F)c2)c(=O)c(C(=O)NCCS(C)(=O)=O)cn1C(C)c1ccc(C#N)cc1 (stereo not drawn) [Example 7.6] | 1.2
Cc1c(-c2cccc(C(F)(F)F)c2)c(=O)c(C(=O)NC2CNC(=O)C2)cn1C(C)c1ccc(C#N)cc1 (stereo not drawn) [Example 7.7] | 2.4
Cc1c(-c2cccc(C(F)(F)F)c2)c(=O)c(C(=O)NCC[S+](C)[O-])cn1C(C)c1ccc(C#N)cc1 (stereo not drawn) [Example 7.8] | 1.3
Cc1c(-c2cccc(C(F)(F)F)c2)c(=O)c(C(=O)NCCO)cn1C(C)c1ccc(C#N)cc1 (stereo not drawn) [Example 7.9] | 2.3
Cc1c(-c2cccc(C(F)(F)F)c2)c(=O)c(C(=O)NC2CCN(C)C2=O)cn1C(C)c1ccc(C#N)cc1 (stereo not drawn) [Example 7.10] | 2
Cc1c(-c2cccc(C(F)(F)F)c2)c(=O)c(C(=O)NC2CCNC2=O)cn1C(C)c1ccc(C#N)cc1 (stereo not drawn) [Example 7.12] | 1.5
Cc1c(-c2cccc(C(F)(F)F)c2)c(=O)c(C(=O)NCC(C)O)cn1C(C)c1ccc(C#N)cc1 (stereo not drawn) [Example 7.13] | 4
Cc1c(-c2cccc(C(F)(F)F)c2)c(=O)c(C(=O)NCC(C)O)cn1C(C)c1ccc(C#N)cc1 (stereo not drawn) [Example 7.14] | 4.7
Cc1c(-c2cccc(C(F)(F)F)c2)c(=O)c(C(=O)NCC(C)(C)O)cn1C(C)c1ccc(C#N)cc1 (stereo not drawn) [Example 7.15] | 10.3
Cc1c(-c2cccc(C(F)(F)F)c2)c(=O)c(C(=O)NCC2(O)CC2)cn1C(C)c1ccc(C#N)cc1 (stereo not drawn) [Example 7.16] | 17.9
Cc1c(-c2cccc(C(F)(F)F)c2)c(=O)c(C(N)=O)cn1C(C)c1ccc(C#N)cc1 (stereo not drawn) [Example 7.17] | 18.5
Cc1c(-c2cccc(C(F)(F)F)c2)c(=O)c(C(=O)NCC#N)cn1C(C)c1ccc(C#N)cc1 (stereo not drawn) [Example 7.18] | < 1
Cc1c(-c2cccc(C(F)(F)F)c2)c(=O)c(C(=O)NC2COC2)cn1C(C)c1ccc(C#N)cc1 (stereo not drawn) [Example 7.19] | 4.1
Cc1c(-c2cccc(C(F)(F)F)c2)c(=O)c(C(=O)NCC(F)F)cn1C(C)c1ccc(C#N)cc1 (stereo not drawn) [Example 7.20] | 3.6
